Measured values taken from US6743937B2, “Efficient method of synthesizing combretastatin A-4 prodrugs” (OxiGene, Inc., priority 2000, dated 2004).

Columns and labels:
[1] = Aqueous solubility at 25° C. as a function of pH; format: physicochemical; settings: for Aqueous solubility: 25° C., based on cis-CA4P free acid
[2] = Moisture sorption at 25° C.; format: physicochemical; settings: for Loss on drying at 1% RH / Wt. gain at 30-70% RH / Wt. gain at > 70% RH: moisture sorption at 25° C.
[3] = Solubility in organic solvents at 25° C.; format: physicochemical; settings: based on cis-CA4P free acid; for Solubility in Acetone: BQL = below quantitation limit of the HPLC method
[4] = Comparison of physical stability of Process A and Process B materials (DSC, TGA, powder-XRD, solubility); settings: based on the available data
[5] = cited from earlier work

COc1ccc(/C=C\c2cc(OC)c(OC)c(OC)c2)cc1OP(=O)([O-])[O-].[Na+].[Na+] [Process A Product, combretastatin A-4 disodium phosphate]
Aqueous solubility ([1]; pH 0.6 (adjusted with HCl)): 2.27 mg/mL
Aqueous solubility ([1]; pH 0.8 (adjusted with HCl)): 0.83 mg/mL
Aqueous solubility ([1]; pH 1.2 (adjusted with HCl)): 0.35 mg/mL
Aqueous solubility ([1]; pH 5.2 (adjusted with HCl)): 77.4 mg/mL
Aqueous solubility ([1]; pH 5.6 (adjusted with HCl)): 76.8 mg/mL
Aqueous solubility ([1]; pH 7.1 (adjusted with HCl)): 169 mg/mL
Aqueous solubility ([1]; pH 7.2 (adjusted with HCl)): 204 mg/mL
Aqueous solubility ([1]; pH 7.8 (adjusted with HCl)): 208 mg/mL
Aqueous solubility ([1]; pH 9.4 (in water)): 213 (in water) mg/mL
Hygroscopicity compared between products [2]: greater degree of hygroscopicity than the Product B product
Loss on drying at 1% RH [2]: 5.7%
Wt. gain at 30-70% RH [2]: 7-8.6%
Wt. gain at > 70% RH [2]: 9-30%
Solubility in Ethanol [3]: Ethanol = 0.18 mg/mL
Solubility in Methanol [3]: Methanol = 22.4 mg/mL
Solubility in Acetone [3]: Acetone = 0.45 mg/mL

COc1ccc(/C=C\c2cc(OC)c(OC)c(OC)c2)cc1OP(=O)([O-])[O-].[Na+].[Na+] [Process B Product, disodium salt of combretastatin A-4 phosphate]
Aqueous solubility ([1]; pH 0.8 (adjusted with HCl)): 0.21 mg/mL
Aqueous solubility ([1]; pH 0.97 (adjusted with HCl)): 0.25 mg/mL
Aqueous solubility ([1]; pH 2.20 (adjusted with HCl)): 1.61 mg/mL
Aqueous solubility ([1]; pH 3.26 (adjusted with HCl)): 5.35 mg/mL
Aqueous solubility ([1]; pH 6.96 (adjusted with HCl)): 34.7 mg/mL
Aqueous solubility ([1]; pH 7.28 (adjusted with HCl)): 81.2 mg/mL
Aqueous solubility ([1]; pH 7.35 (adjusted with HCl)): 94.3 mg/mL
Aqueous solubility ([1]; pH 8.40 (adjusted with HCl)): 115 mg/mL
Aqueous solubility ([1]; pH 9.4 (in water)): 118 (in water) mg/mL
Solubility compared between products ([1]; both aqueous and organic solvents at 25° C.): consistently lower solubility than the Process A product
Physical stability compared between products [4]: physically more stable material than Process A
Loss on drying at 1% RH [2]: 6.6%
Wt. gain at 30-70% RH [2]: 3%
Wt. gain at > 70% RH [2]: upto 30%
Solubility in Ethanol [3]: Ethanol = 0.096 mg/mL
Solubility in Methanol [3]: Methanol = 1.77 mg/mL
Solubility in Acetone [3]: Acetone = BQL^$

COc1ccc(/C=C\c2cc(OC)c(OC)c(OC)c2)cc1O [combretastatin A-4]
Solubility in water [5]: extremely poor solubility in water
